{"source": "patent US20100113421A1", "about": "“NON-NUCLEOSIDE REVERSE TRANSCRIPTASE INHIBITORS” (priority 2006, published 2010)", "data": [{"tested_on": "HIV strain containing the Y181C mutation", "assay": "Spread assay, Y181C mutant strain", "type": "cell-based", "settings": "Human immunodeficiency virus 1; spread assay, 10% FBS, Y181C mutant strain; read-out: CIC95", "procedure": "Assays for the inhibition of acute HIV-1 infection of T-lymphoid cells (alternatively referred to herein as the “spread assay”) were conducted in accordance with Vacca, J. P. et al., Proc. Natl. Acad. Sci. USA 1994, 91: 4096. The assays (using 10% FBS) tested for inhibition of wild type HIV-1 and of HIV strains containing the Y181C or K103N mutation. […] (Note that the compound of Example 6 was tested only up to a 833 nM concentration and the CIC95 value was determined to be >833 nM. The compound of Example 78 was not tested in the Y1818C assay.) The compounds of Examples 1 to 119 (including Examples 70A and 70B) had CIC95 values of less than 1000 nanomolar in the assay employing the K103N mutant strain. In an analogous assay employing a mutant strain containing both the K103N and Y181C mutations, the compounds of Examples 70A, 70B and 78-115 had CIC95 values of less than 1000 nanomolar.", "units": {"IC95": "µM"}, "values": [{"smiles": "Cc1c(C(=O)N(C)Cc2ccc3ncccc3c2)[nH]c(C(N)=O)c1S(=O)(=O)c1cc(Cl)cc(C#N)c1", "note": "[Example 57]", "IC95": "< 8"}, {"smiles": "Cc1c(C(=O)N(C)Cc2ccccc2F)[nH]c(C(N)=O)c1S(=O)(=O)c1ccccc1", "note": "[Example 7, N-(2-fluorobenzyl)-N,3-dimethyl-4-(phenylsulfonyl)-1H-pyrrole-2,5-dicarboxamide]", "IC95": "< 8"}, {"smiles": "Cc1c(C(=O)N(C)Cc2ccccc2Br)[nH]c(C(N)=O)c1S(=O)(=O)c1ccccc1", "note": "[Example 9, N-(2-bromobenzyl)-N,3-dimethyl-4-(phenylsulfonyl)-1H-pyrrole-2,5-dicarboxamide]", "IC95": "< 8"}, {"smiles": "Cc1c(C(=O)N(C)Cc2ccc(Cl)cc2Cl)[nH]c(C(=O)NCc2n[nH]c3ccccc23)c1S(=O)(=O)c1ccccc1", "note": "[Example 71, N-(2,4-Dichlorobenzyl)-N′-(1H-indazol-3-ylmethyl)-N,3-dimethyl-4-(phenylsulfonyl)-1H-pyrrole-2,5-dicarboxamide]", "IC95": "< 8"}, {"smiles": "Cc1cc(C)cc(S(=O)(=O)c2c(C(N)=O)[nH]c(C(=O)N(C)Cc3ccc(Cl)cc3F)c2C)c1", "note": "[Example 26, N-(4-chloro-2-fluorobenzyl)-N,3-dimethyl-4-(3,5-dimethylphenylsulfonyl)-1H-pyrrole-2,5-dicarboxamide]", "IC95": "< 8"}, {"smiles": "Cc1c(C(=O)N(C)Cc2ccc(Cl)cc2Cl)[nH]c(C(N)=O)c1S(=O)(=O)c1cccc(C(F)(F)F)c1", "note": "[Example 23, N-(2,4-dichlorobenzyl)-N,3-dimethyl-4-(3-trifluoromethylphenylsulfonyl)-1H-pyrrole-2,5-dicarboxamide]", "IC95": "< 8"}, {"smiles": "Cc1c(C(=O)N(C)Cc2ccc3ncccc3c2Cl)[nH]c(C(N)=O)c1S(=O)(=O)c1ccccc1", "note": "[Example 42, N-[(5-Chloro-6-quinolinyl)methyl]-N,3-dimethyl-4-(phenylsulfonyl)-1H-pyrrole-2,5-dicarboxamide]", "IC95": "< 8"}, {"smiles": "Cc1c(C(=O)N(C)Cc2ccc3ncccc3c2Cl)[nH]c(C(N)=O)c1S(=O)(=O)c1cc(F)cc(F)c1", "note": "[Example 49, N-[(5-chloro-6-quinolinyl)methyl]-4-[(3,5-difluorophenyl)sulfonyl]-N,3-dimethyl-1H-pyrrole-2,5-dicarboxamide]", "IC95": "< 8"}, {"smiles": "Cc1c(C(=O)N(C)Cc2ccc(Cl)cc2Cl)[nH]c(C(N)=O)c1S(=O)(=O)N1CCCCC1", "note": "[Example 118, N-(2,4-dichlorobenzyl)-N,3-dimethyl-4-(1-piperidinylsulfonyl)-1H-pyrrole-2,5-dicarboxamide]", "IC95": "< 8"}, {"smiles": "CC(C)c1c(C(=O)N(C)Cc2ccc3ncccc3c2)[nH]c(C(N)=O)c1S(=O)(=O)c1ccccc1", "note": "[Example 64, 3-isopropyl-N-methyl-4-(phenylsulfonyl)-N-(6-quinolinylmethyl)-1H-pyrrole-2,5-dicarboxamide]", "IC95": "< 8"}, {"smiles": "CCCCc1c(C(=O)N(C)Cc2ccc3ncccc3c2)[nH]c(C(N)=O)c1S(=O)(=O)c1cccc(C)c1", "note": "[Example 67, 3-butyl-N-methyl-4-(3-methylphenylsulfonyl)-N-(6-quinolinylmethyl)-1H-pyrrole-2,5-dicarboxamide]", "IC95": "< 8"}, {"smiles": "Cc1c(C(=O)N(C)Cc2ccc(Cl)cc2Cl)[nH]c(C(=O)NCc2cccnc2)c1S(=O)(=O)c1ccccc1", "note": "[Example 75, N-(2,4-dichlorobenzyl)-N,3-dimethyl-4-(phenylsulfonyl)-N′-(3-pyridinylmethyl)-1H-pyrrole-2,5-dicarboxamide]", "IC95": "< 8"}, {"smiles": "Cc1c(C(=O)N(C)Cc2ccccc2)[nH]c(C(N)=O)c1S(=O)(=O)c1cc(Cl)cc(Cl)c1", "note": "[Example 32, N-benzyl-N,3-dimethyl-4-(3,5-dichlorophenylsulfonyl)-1H-pyrrole-2,5-dicarboxamide]", "IC95": "< 8"}, {"smiles": "CC(C)c1c(C(=O)N(C)Cc2ccc(Cl)cc2Cl)[nH]c(C(N)=O)c1S(=O)(=O)c1ccccc1", "note": "[Example 63, N-(2,4-dichlorobenzyl)-3-isopropyl-N-methyl-4-(phenylsulfonyl)-1H-pyrrole-2,5-dicarboxamide]", "IC95": "< 8"}, {"smiles": "Cc1c(C(=O)N(C)Cc2ccc3ncccc3c2Cl)[nH]c(C(N)=O)c1S(=O)(=O)c1cc(Cl)cc(Cl)c1", "note": "[Example 55, N-[(5-chloro-6-quinolinyl)methyl]-4-[(3,5-dichlorophenyl)sulfonyl]-N,3-dimethyl-1H-pyrrole-2,5-dicarboxamide]", "IC95": "< 8"}, {"smiles": "Cc1c(C(=O)N(C)Cc2ccncc2Cl)[nH]c(C(N)=O)c1S(=O)(=O)c1ccccc1", "note": "[Example 39, N-[(3-chloro-4-pyridinyl)methyl]-N,3-dimethyl-4-(phenylsulfonyl)-1H-pyrrole-2,5-dicarboxamide]", "IC95": "< 8"}, {"smiles": "Cc1c(C(=O)N(C)Cc2ccccc2Cl)[nH]c(C(=O)NCc2ccccn2)c1S(=O)(=O)N1CCCC1", "note": "[Example 117, N-(2-chlorobenzyl)-N,3-dimethyl-N′-(2-pyridinylmethyl)-4-(1-pyrrolidinylsulfonyl)-1H-pyrrole-2,5-dicarboxamide]", "IC95": "< 8"}, {"smiles": "Cc1c(C(=O)N(C)Cc2ccc(Cl)cc2Cl)[nH]c(C(N)=O)c1S(=O)(=O)N1CCCC1", "note": "[Example 116, N-(2,4-dichlorobenzyl)-N,3-dimethyl-4-(1-pyrrolidinylsulfonyl)-1H-pyrrole-2,5-dicarboxamide]", "IC95": "< 8"}, {"smiles": "Cc1c(C(=O)N(C)Cc2ccc(Cl)cc2F)[nH]c(C(N)=O)c1S(=O)(=O)c1ccccc1", "note": "[Example 12, N-(4-chloro-2-fluorobenzyl)-N,3-dimethyl-4-(phenylsulfonyl)-1H-pyrrole-2,5-dicarboxamide]", "IC95": "< 8"}, {"smiles": "Cc1c(C(=O)N(C)Cc2ccc(Cl)cc2F)[nH]c(C(N)=O)c1S(=O)(=O)c1cc(Cl)cc(Cl)c1", "note": "[Example 35, N-(4-chloro-2-fluorobenzyl)-N,3-dimethyl-4-(3,5-dichlorophenylsulfonyl)-1H-pyrrole-2,5-dicarboxamide]", "IC95": "< 8"}, {"smiles": "COc1cccc(CN(C)C(=O)c2[nH]c(C(N)=O)c(S(=O)(=O)c3ccccc3)c2C)c1", "note": "[Example 36, N-(3-methoxyobenzyl)-N,3-dimethyl-4-(phenylsulfonyl)-1H-pyrrole-2,5-dicarboxamide]", "IC95": "< 8"}, {"smiles": "Cc1c(C(=O)N(C)Cc2ccc(Cl)cc2F)[nH]c(C(N)=O)c1S(=O)(=O)c1cc(F)cc(Cl)c1", "note": "[Example 31, N-(4-chloro-2-fluorobenzyl)-N,3-dimethyl-4-(3-chloro-5-fluorophenylsulfonyl)-1H-pyrrole-2,5-dicarboxamide]", "IC95": "< 8"}, {"smiles": "Cc1c(C(=O)N(C)Cc2ccccc2F)[nH]c(C(N)=O)c1S(=O)(=O)c1cccc(F)c1", "note": "[Example 16, N-(2-fluorobenzyl)-N,3-dimethyl-4-(3-fluorophenylsulfonyl)-1H-pyrrole-2,5-dicarboxamide]", "IC95": "< 8"}, {"smiles": "Cc1c(C(=O)N(C)Cc2ccccc2F)[nH]c(C(N)=O)c1S(=O)(=O)c1cc(Cl)cc(Cl)c1", "note": "[Example 33, N-(2-fluorobenzyl)-N,3-dimethyl-4-(3,5-dichlorophenylsulfonyl)-1H-pyrrole-2,5-dicarboxamide]", "IC95": "< 8"}, {"smiles": "Cc1cc(C)cc(S(=O)(=O)c2c(C(N)=O)[nH]c(C(=O)N(C)Cc3ccccc3)c2C)c1", "note": "[Example 3, N-Benzyl-N,3-dimethyl-4-(3,5-dimethylphenylsulfonyl)-1H-pyrrole-2,5-dicarboxamide]", "IC95": "< 8"}, {"smiles": "Cc1c(C(=O)N(C)Cc2ccccc2Cl)[nH]c(C(N)=O)c1S(=O)(=O)c1cccc(Cl)c1", "note": "[Example 20, N-(2-chlorobenzyl)-N,3-dimethyl-4-(3-chlorophenylsulfonyl)-1H-pyrrole-2,5-dicarboxamide]", "IC95": "< 8"}, {"smiles": "Cc1c(C(=O)N(C)Cc2cccc(Cl)c2)[nH]c(C(N)=O)c1S(=O)(=O)c1ccccc1", "note": "[Example 10, N-(3-chlorobenzyl)-N,3-dimethyl-4-(phenylsulfonyl)-1H-pyrrole-2,5-dicarboxamide]", "IC95": "< 8"}, {"smiles": "Cc1c(C(=O)N(C)Cc2ccccc2)[nH]c(C(N)=O)c1S(=O)(=O)c1cccc(C(F)(F)F)c1", "note": "[Example 22, N-benzyl-N,3-dimethyl-4-(3-trifluoromethylphenylsulfonyl)-1H-pyrrole-2,5-dicarboxamide]", "IC95": "< 8"}, {"smiles": "Cc1c(C(=O)N(C)Cc2ccc(Br)cc2)[nH]c(C(N)=O)c1S(=O)(=O)c1ccccc1", "note": "[Example 11, N-(4-bromobenzyl)-N,3-dimethyl-4-(phenylsulfonyl)-1H-pyrrole-2,5-dicarboxamide]", "IC95": "< 8"}, {"smiles": "Cc1c(C(=O)N(C)Cc2ccc(Cl)cc2Cl)[nH]c(C(N)=O)c1S(=O)(=O)c1cc(Cl)cc(Cl)c1", "note": "[Example 2, N-(2,4-Dichlorobenzyl)-4-[(3,5-dichlorophenyl)sulfonyl]-N,3-dimethyl-1H-pyrrole-2,5-dicarboxamide]", "IC95": "< 8"}, {"smiles": "Cc1c(C(=O)N(C)Cc2ccccc2Cl)[nH]c(C(N)=O)c1S(=O)(=O)c1cc(Cl)cc(Cl)c1", "note": "[Example 34, N-(2-chlorobenzyl)-N,3-dimethyl-4-(3,5-dichlorophenylsulfonyl)-1H-pyrrole-2,5-dicarboxamide]", "IC95": "< 8"}, {"smiles": "Cc1c(C(=O)N(C)Cc2ccccc2F)[nH]c(C(N)=O)c1S(=O)(=O)c1cc(F)cc(Cl)c1", "note": "[Example 29, N-(2-fluorobenzyl)-N,3-dimethyl-4-(3-chloro-5-fluorophenylsulfonyl)-1H-pyrrole-2,5-dicarboxamide]", "IC95": "< 8"}, {"smiles": "Cc1c(C(=O)N(C)Cc2ccsc2)[nH]c(C(N)=O)c1S(=O)(=O)c1ccccc1", "note": "[Example 38, N,3-dimethyl-4-(phenylsulfonyl)-N-(3-thienylmethyl)-1H-pyrrole-2,5-dicarboxamide]", "IC95": "< 8"}, {"smiles": "Cc1c(C(=O)N(C)Cc2ccc(Cl)cc2Cl)[nH]c(C(N)=O)c1S(=O)(=O)c1ccccc1", "note": "[Example 1, N-(2,4-Dichlorobenzyl)-N,3-dimethyl-4-(1-phenylsulfonyl)-1H-pyrrole-2,5-dicarboxamide]", "IC95": "< 8"}]}]}
